Legend:
[1] = system: tumors derived from malignant melanoma cells; test: Melanoma tumor progression in animals; format: in vivo
Hela cells = test: M phase arrest, alpha-tubulin immunofluorescence and flow cytometry, Hela cells; format: cell-based; conditions: 20 μM noscapine, 24 hr
Experimental: (§1) Hela cells were grown in DMEM supplemented with 10% fetal calf serum, 1 mM L-glutamine and 1% penicillin/streptomycin. The tumor cell line E-G7-OV A […] [Moore, M. W., et al., Cell. 54, 777 (1988)] was grown in RPM1 1640 with 10% fetal calf serum, 1% sodium pyruvate, 1 mM L-glutamine, 0.1% gentamycin, 50 μtM β-mercaptoethanol. Cells were grown at 37° C. in a 5% CO2 atmosphere. Cell viability was assessed by trypan blue exclusion analysis. Cell numbers were determined using a hemacytometer, C57BL/6 […] mice, 8 to 12 weeks of age, were obtained from Harian Sprague Dawley, Inc. (Indiananapolis, Ind.). Mice were maintained on standard laboratory chow and water ad libitum, in a temperature and light controlled environment. For immunofluorescence, both Hela and thymocyte cells were treated identically except the Hela cells were grown onto glass coverslips while EL4 thymocytes were put on glass coverslips after fixation. […]
(§2) Then cells were washed with 1% BSA-PBS solution for 10 min. at room temperature before incubating with a 1:200 dilution of a rhodamine labeled goat anti-mouse IgG antibody at room temperature for 45 min., then the coverslips were rinsed by 1% BSA/PBS solution for 10 min. and labeled by DAPI (4′, 6-diamino-2-phenyliudole) for another 10 min. at room temperature. […] Cells were examined with a fluorescence microscope. […] The samples were read on a cytometer.

thymocyte cells = test: M phase arrest, alpha-tubulin immunofluorescence and flow cytometry, thymocyte cells; format: cell-based; conditions: 20 μM noscapine, 24 hr
Experimental: as §1, §2

lymphocyte cells = test: Apoptosis initiation: oligonucleosomal DNA fragmentation, DAPI staining, nick end labeling; format: cell-based; conditions: noscapine treatment 0 to 24 hr
Experimental: Oligonucleosomal fragmentation of genomic DNA was determined according to Walton, M. I. et. al., Cancer. Res. 53, 1853 (1993). An aliquot of 3.3×10^6 cells in 10 ml medium was incubated with […] for different time periods ranging from 0 to 24 hr. At the end of incubation, cells were pelleted and washed twice with ice-cold PBS, and lysed in 250 μl 1% (v/v) NP-40 detergent containing 0.5 mg/ml proteinase K in PBS solution on ice for 60 min. Samples were centrifuged, and the supernatants were removed and incubated with 5 μl 10 mg/ml Rnase A at 37° C. for 40 min. An aliquot of 1 ml anhydrous ethanol was added, tubes were placed at −20° C. for 20 min., then centrifuged to pellet DNA. […]
Morphological changes in the nuclear chromatin of cells undergoing apoptosis were detected by staining with 4′, 6-diamidino-2-phenylindole (DAPI). […] Following 15 min. incubation at room temperature, a 10 μl aliquot was placed on a glass slide, and 400 cells per slide were scored for the incidence of apoptotic chromatin changes with a fluorescence microscope. […]
After the slides were rinsed with PBS, 50 μl converter-POD solution was added on samples and incubated for 30 min. at 37° C. […] After the slides were rinsed with PBS for another 3 times, coverslips were mounted and analyzed with a light microscope.

E.G7-OVA cells = test: Inhibition of tumor growth, E.G7-OVA tumors in C57BL/6 mice; format: in vivo; conditions: 3 mg noscapine every day for three weeks, intraperitoneally or intragastric; vs saline
Experimental: C57BL/6 mice were injected subcutaneously in the right flank with 2×10^6 E.G7-OVA cells. Three days later, mice were injected intraperitoneally, every day for three weeks, either with 200 μl saline (n=10), or with 3 mg noscapine dissolved in 200 μl saline (n=10),. Third group of mice (n=10) was fed 3 mg noscapine via intragastric (i.g.) intubation using a 1 ml syringe fitted with a 20 gauge stainless steel ball point needle. After three weeks, all mice were sacrificed by cervical dislocation. Tumors were removed and weighted. Tumor weights were individually plotted and comparisons between control and treatment groups were analyzed by the Student's test.

solid lymphoid tumors = test: Apoptosis in solid lymphoid tumors induced in mice, Haemotoxline and Eosine staining; format: in vivo; conditions: noscapine treated mice, microscopic examination
bovine brain tubulin [2] = test: Tubulin binding by fluorescence titration, Scatchard plot
Experimental: (§3) Phosphocellulose purified bovine brain tubulin was employed throughout these biophysical experiments. Fluorescence titration for determining binding constants was performed according to Peyrot, V. et al., Biochemistry 31, 11125 (1992). In brief; at room temperature, 2 μM tubulin in 100 mM PIPES, 2 mM EGTA, 1 mM MgCl2 was excited at 278 nm, and the fluorescence emission spectra were recorded with bandwidths 2 nm. […] The concentration of noscapine was raised in increments of 0.5 μM, until the decrease in the fluorescence intensity was saturated. The value of the dissociation constant and the number of sites were obtained from Scatchard plots using the equation, […], where r is the ratio of the concentration of bound ligand to the total protein concentration and n is the number of binding sites. Circular dichroism (CD) spectra measurements were performed in a spectroscometer, in cells (0.1 cm path) at 25° C. Microtubule assembly was recorded on a spectrophotometer with thermocontroler. The cuvettes (0.4 cm path) containing 100 mM PIPES, 2 mM EGTA, 1 mM MgCl2 and 1 mM GTP (G-PEM buffer), and 20 μM noscapine/DMSO were kept at room temperature before addition of tubulin and shifting to 37° C. […] The assembly was monitored by measuring the changes in turbidity at 0.5 min. intervals. Noscapine was dissolved in DMSO at 0.8 mM and stocked at 4° C. […]

bovine brain tubulin [3] = test: Microtubule assembly, turbidity at 350 nm; format: biochemical; conditions: 20 μM noscapine, 37° C., G-PEM buffer
Experimental: as §3

HL-60 cells = test: Apoptosis of HL-60 cells, DAPI staining of nuclear chromatin; format: cell-based; conditions: for Apoptic Cell Percentage: 24 hours
Experimental: Morphological changes in the nuclear chromatin of HL-60 cells undergoing apoptosis were detected by staining with 4′, 6-diamidino-2-phenylindole (DAPI). In brief, 0.5×10^6 to 3×10^6 cells were fixed with 4% glutaraledehyde, 0.2% Triton x-100, in PBS and incubated at room temperature for 10 min., then centrifuged at 1000×9 for 10 min., resuspended in 20 μ1 0.1% DAPI ethanol. Following 15 min. incubation at room temperature, at 10 μl aliquot was placed on a glass slide, and 400 cells per slide were scored for the incidence of apoptotic chromatin changes with a fluorescence microscope.

Compound	reduction of tumor volume compared to untreated animals [1] [%]	M phase arrest of microtubule arrays (Hela cells)	M phase arrest of microtubule arrays (thymocyte cells)	DNA degradation (gel electrophoresis of fragmented genomic DNA, staining of treated cells) (lymphocyte cells)	tumor weight (E.G7-OVA cells)	apoptotic morphologies of tumor cells (solid lymphoid tumors)	Kd (bovine brain tubulin [2]; 2 μM tubulin, room temperature, Scatchard plot, read-out: apparent dissociation constant (Kd)) [nM]	fluorescence quenching of tubulin (bovine brain tubulin [2]; excitation 278 nm)	tubulin assembly (absorbance at 350 nm) (bovine brain tubulin [3])	initiation of apoptosis (HL-60 cells)	Apoptic Cell Percentage (HL-60 cells; 20 μM in DMSO, first trial) [%]	Apoptic Cell Percentage (HL-60 cells; 20 μM in DMSO, second trial) [%]	Apoptic Cell Percentage (HL-60 cells; 50 μM in DMSO) [%]
COc1ccc2c(c1OC)C(=O)O[C@@H]2[C@H]1c2c(cc3c(c2OC)OCO3)CCN1C [Noscapine]	~83	microtubule arrays are arrested in M phase	microtubule arrays are arrested in M phase	progressive DNA degradation with increasing time	significantly reduced tumor weight	many cells in noscapine treated mice with apoptotic morphologies	1860	affords fluorescence quenching of tubulin	promotes tubulin assembly	initiate apoptosis	30	17	27
1,3-dihydro-4,5-dimethoxy-1-[1-(8-methoxy-2-methyl-6,7-methylenedioxy-1,2,3,4-tetrahydroisoquinolinyl)] isobenzofuran-BH3 [Compound 3]	–	–	–	–	–	–	–	–	–	initiate apoptosis	37	28	39
COc1ccc2c(c1OC)CO[C@@H]2[C@H]1c2c(cc3c(c2OC)OCO3)CCN1C [Compound 4, 1,3-diliydro-4,5-dimethoxy-1-[1-(8-methoxy-2-methyl-6,7-methylenedioxy 1,2,3,4-tetrahydroixoquinolinyl)]isobenzofuran]	–	–	–	–	–	–	–	–	–	initiate apoptosis	48	32	52
